Test results: patent publication US10882860B2, “Treatment of osteoarthritis” (Samumed, LLC, priority 2015, dated 2021)

What was measured:
[1] = test system: rat models of osteoarthritis (ACLT and pMMx); assay: Efficacy of suspension compositions compared to a solution composition in rat OA model; format: in vivo, rats
Method: The efficacy of suspension compositions of the compound of Formula (I) (Form 1) as compared to a solution composition of the compound of Formula (I) in rat models of osteoarthritis (OA) was determined using a solution (final IA dose of 3 μg solution) and 0.1 μg and 0.3 μg suspension compositions of the compound of Formula (I) (Form 1).
The rats were treated with final dose levels of either a 0.1 μg or 0.3 μg suspension or a 3 μg solution of the compound of Formula (I). Histology score of cartilage integrity in the knee was the readout.

[2] = test system: subjects with moderately to severely symptomatic knee OA; assay: Initial clinical study (first cohort, single IA injection); format: in vivo, human; parameters: Change in cartilage thickness: unit not given here
Method: Twenty-one subjects were enrolled in the first cohort of a clinical trial for the treatment of osteoarthritis. All subjects completed a minimum of 12 weeks of follow-up after treatment. This study was a first-in-human, multicenter, placebo-controlled, single-dose, dose-escalation safety study in subjects suffering from moderately to severely symptomatic knee OA. Subjects were treated with a single ultrasound-guided intra-articular injection of a suspension of a non-stoichiometric hydrate of Form I having between 1% and about 20% by weight water or placebo.
A single-use injectable composition containing the compound of Formula (I) suspended in a 0.5% sodium carboxymethylcellulose and 0.05% polysorbate 80 in 10 mM phosphate buffered saline solution, pH 7.4, was prepared. For this study, a dosage of 0.03-0.230 mg of the compound of Formula (I) was administered per 2 mL injection.
Subjects were evaluated using the following primary and secondary assessments:
1. Evaluation of the safety and tolerability of the therapeutic composition administered by intra-articular injection into the target knee joint of moderately to severely symptomatic osteoarthritis (OA) subjects. This included:
a) monitoring for treatment-emergent adverse events (AEs);
b) assessing bone loss by measuring bone biomarkers (cartilage oligomeric matrix protein [COMP], N-terminal propeptides of procollagen type I [PINP], and β-C-terminal telopeptide [β-CTX]) at Weeks 4 and 12 by computed tomography (CT) of both knee joints and at Week 12 after study medication injection compared to baseline; and
c) assessing bone marrow edema by magnetic resonance imaging (MRI) at Week 12 compared to baseline.
2. Assessment of the pharmacokinetic (PK) behavior of the compound of Formula (I) under the conditions of this study at Days 1, 2, 4, and 12.
Estimation of clinical responses to treatment with the therapeutic composition, including:
a) change from baseline in pain visual analog scale (VAS) score assessed at Weeks 1, 2, 4, 8, and 12;
b) change from baseline in the Western Ontario and McMaster Universities Arthritis Index (WOMAC) assessed at Weeks 1, 2, 4, 8, and 12;
c) change from baseline OA pain as assessed by the WOMAC pain subscale at Weeks 1, 2, 4, 8, and 12;
d) change from baseline OA as assessed by the physician global assessment of disease activity at Weeks 1, 2, 4, 8, and 12;
e) change from baseline in total cartilage volume and thickness in the compartments of the target knee joint as documented by Mill at Week 12;
f) changes from baseline in anabolic or catabolic biomarkers indicative of cartilage synthesis or degradation (cartilage oligomeric matrix protein [COMP], N-terminal propeptides of procollagen type I [PINP], and β-C-terminal telopeptide [(3-CTX]) at Weeks 4 and 12;
g) change from baseline in plasma levels of cytokines related to inflammation (interleukin [IL] 1b, IL6, IL8, tumor necrosis factor (TNF), and interferon-alpha [IFNα]) at Weeks 4 and 12; and
h) change from baseline in bone marrow edema as documented by Mill scan of the target knee at baseline and at Week 12.

[3] = test system: Wnt genes TCF7, c-Myc, Axin-2, Ascl 2, and SP5; assay: In vitro Wnt pathway inhibition, qRT-PCR in human MSCs; format: cell-based; conditions: 30 nM; 48 hours; fold change vs DMSO; FIG. 15
Method: Human mesenchymal stem cells (MSCs) were plated in 6-well plates in chondrogenic induction medium (Lonza; DMEM, dexamethasone, ascorbate, insulin-transferrin-selenium [ITS supplement], gentamycin-amphotericin [GA-1000], sodium pyruvate, proline and L-glutamine) and treated with the compound of Formula (I) (30 nM) in DMSO or TGF-β3 (20 μg/mL) as a positive control. Cells were incubated at 37° C., 5% CO2 for 48 hours. Cells were pelleted and washed, and total RNA was isolated and purified using RNeasy Plus Mini Kit (Qiagen). cDNA was synthesized from 1 μg of total RNA using QuantiTect Reverse Transcription kit (Qiagen). qRT-PCR was performed with QuantiTect SYBR Green PCR Kit (Qiagen) and gene-specific primers, using CFX384 thermal cycler (Biorad). Transcripts were quantitated by comparative Ct method and normalized to endogenous controls, β-actin and GAPDH. Fold changes were normalized to DMSO treated cells.

[4] = subject Treatment 1, Week 12 vs baseline
[5] = subject Treatment 2, Week 12 vs baseline
[6] = subject Treatment 3, Week 12 vs baseline
[7] = subject Treatment 4, Week 12 vs baseline

CC(C)CC(=O)Nc1cncc(-c2ccc3[nH]nc(-c4nc5c(-c6cccc(F)c6)cncc5[nH]4)c3c2)c1 [compound of Formula (I)]
histology score of cartilage integrity in the knee (vs. vehicle) ([1]; 0.1 μg suspension, 3 months, did not reach statistical significance): beneficial effect | histology score of cartilage integrity in the knee (vs. vehicle) ([1]; 0.3 μg suspension, 3 months): significant difference | histology score of cartilage integrity in the knee (vs. vehicle) ([1]; 3 μg solution, 2 months, did not reach statistical significance): beneficial effect | Change in WOMAC score [2, 4]: −56 | Change in cartilage thickness [2, 4]: 1.2 | Week 12 cartilage thickness (mm) ([2]; subject Treatment 1, baseline 14.01): 15.21 mm | Week 12 WOMAC score ([2]; subject Treatment 1, baseline 56): 0 | Change in WOMAC score [2, 5]: −30 | Change in cartilage thickness [2, 5]: 1.2 | Week 12 cartilage thickness (mm) ([2]; subject Treatment 2, baseline 12.12): 13.32 mm | Week 12 WOMAC score ([2]; subject Treatment 2, baseline 51): 21 | Change in WOMAC score [2, 6]: −27 | Change in cartilage thickness [2, 6]: 1.3 | Week 12 cartilage thickness (mm) ([2]; subject Treatment 3, baseline 13.22): 14.52 mm | Week 12 WOMAC score ([2]; subject Treatment 3, baseline 59): 32 | Change in WOMAC score [2, 7]: −38 | Change in cartilage thickness [2, 7]: 1.44 | Week 12 cartilage thickness (mm) ([2]; subject Treatment 4, baseline 9.89): 11.33 mm | Week 12 WOMAC score ([2]; subject Treatment 4, baseline 61): 23 | expression of Wnt genes TCF7, c-Myc, Axin-2, Ascl 2, and SP5 [3]: downregulation
